Source: patent US5985885A, “Quinazoline-4-amino-2-(piperidine-1-yl-4-substituted) derivatives having antihypertensive activity, a method for their preparation and their pharmaceutical use” (priority 1996, dated 1999)
Counter-ions that a name gives are not always drawn. Like-named read-outs stand apart in the source and are kept apart here. Each block holds one compound with its values, some of them ahead of it.

What was measured:
[1] = molecular target: alpha1A + alpha1C adrenergic receptor (human prostate); experiment: [3H]-prazosin binding in human prostate; details: alpha1A + alpha1C subtype, pH 7.5, 30 min, 25° C., read-out: Inhibition of the binding of [3H]-prazosin IC50
[2] = molecular target: T1, 5-HT2 receptors (isolated rabbit aorta) (Oryctolagus cuniculus, UniProt G1SYA7); experiment: Antagonism of serotonin-induced contraction of isolated rabbit aorta; details: for IC50: isolated rabbit aorta, 37° C., compound 10 min before agonist, limits (p < 0.05)
T1 construct: Four rings formed from rabbit aorta were joined together to form a chain; from tissue; host or cells: isolated rabbit aorta rings
Protocol: The antagonist activity of some of the compounds of the invention on the contractile activity of seratonin on isolated rabbit aorta, effected principally by way of the 5-HT2 receptors, is reported here by way of example. The method of Feniuk et al [Br. J. Pharmacol. (1985), 86, 697-704] was used, with slight modifications. Four rings formed from rabbit aorta were joined together to form a chain; the preparation was placed in an isolated organ bath in the presence of Krebs at 37° C. and attached to an isometric transducer, a tension of 2 g being applied and oxygenation was carried out continuously with O2 --CO2 (95-5 v/v). A seratonin concentration(0.3 μM) was used that was capable of causing sub-maximal contraction of the preparation. […] The results obtained in this way are given in Table 4 below which, for several of the compounds of the invention gives IC50 values calculated by the regression method on a set of at least 2 experiments at 5 different concentrations for each of the compounds examined, these being compared with values obtained for several reference compounds.

[3] = tested on: spontaneously hypertensive (SHR) rat; experiment: Anti-hypertensive activity in the spontaneously hypertensive (SHR) rat (oral); assay type: in vivo
Description: Animals having a mean basal systolic pressure of not less than 180 mmHg were used.

[4] = tested on: anaesthetised normotensive rat; experiment: Hypotensive activity in the anaesthetised normotensive rat (IV); assay type: in vivo; details: for ED30: Rattus norvegicus, read-out: Reduction in mean arterial pressure ED30
Protocol: In order to evaluate the in vivo activity, some of the compounds of the invention were administered (IV) in bolus form to the normotensive rat anaesthetised with urethane plus ketamine. The compounds were administered in at least three doses in experiments performed in duplicate so as to enable the calculation of ED30 values, that is, the dose in mg/kg that reduces the mean basal arterial pressure by 30%. The compounds of the invention, and several reference standards, were dissolved in dilute hydrochloric acid at a physiologically acceptable pH, and physiological solution was administered in a volume of 3 ml/kg. Evaluations were made at two time periods, that is, the intervals 0-30 min and 30-60 min after administration.

[5] = molecular target: T2, alpha1A adrenergic receptor (rat GSM) (Rattus norvegicus, UniProt P43140); experiment: [3H]-prazosin binding in rat submaxillary glands (GSM); details: alpha1A subtype, pH 7.4, 45 min, 25° C., read-out: Inhibition of the binding of [3H]-prazosin IC50
T2 sequence (P43140 1-466): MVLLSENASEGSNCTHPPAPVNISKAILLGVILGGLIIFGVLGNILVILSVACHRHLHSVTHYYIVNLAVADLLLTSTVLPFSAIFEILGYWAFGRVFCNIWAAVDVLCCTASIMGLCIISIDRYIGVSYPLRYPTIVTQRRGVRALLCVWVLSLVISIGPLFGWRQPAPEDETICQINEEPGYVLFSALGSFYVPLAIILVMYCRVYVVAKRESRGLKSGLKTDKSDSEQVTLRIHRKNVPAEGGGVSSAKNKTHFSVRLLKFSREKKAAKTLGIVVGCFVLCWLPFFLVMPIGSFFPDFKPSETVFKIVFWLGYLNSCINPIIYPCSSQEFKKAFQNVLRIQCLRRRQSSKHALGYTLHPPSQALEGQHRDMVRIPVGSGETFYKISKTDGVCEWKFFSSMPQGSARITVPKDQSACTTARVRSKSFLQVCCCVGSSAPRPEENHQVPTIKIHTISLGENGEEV

[6] = molecular target: T3, alpha1B adrenergic receptor (rat liver) (Rattus norvegicus, UniProt P15823); experiment: [3H]-prazosin binding in rat liver
T3 sequence (P15823 1-515): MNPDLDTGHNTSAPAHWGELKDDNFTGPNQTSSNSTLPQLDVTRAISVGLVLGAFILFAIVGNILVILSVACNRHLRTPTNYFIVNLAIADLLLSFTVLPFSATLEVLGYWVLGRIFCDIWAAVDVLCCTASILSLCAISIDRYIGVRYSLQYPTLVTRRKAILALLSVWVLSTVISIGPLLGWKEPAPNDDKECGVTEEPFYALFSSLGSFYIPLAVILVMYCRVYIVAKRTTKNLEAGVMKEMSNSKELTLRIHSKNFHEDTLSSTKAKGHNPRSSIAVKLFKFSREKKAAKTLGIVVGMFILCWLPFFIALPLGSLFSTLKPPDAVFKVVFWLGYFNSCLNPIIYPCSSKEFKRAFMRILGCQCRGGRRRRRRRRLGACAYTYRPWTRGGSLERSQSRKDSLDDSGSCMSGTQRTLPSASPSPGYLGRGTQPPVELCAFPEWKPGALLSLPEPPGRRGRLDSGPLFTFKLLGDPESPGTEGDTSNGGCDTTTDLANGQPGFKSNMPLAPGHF

[7] = in vivo; details: rat
[8] = tested on: alpha1A, alpha1B and alpha1C adrenergic receptor subtypes; experiment: [3H]-prazosin binding, alpha1 subtypes together (Table 3 overall); details: reference compounds versus compounds of the invention/prazosin

T1 sequence (G1SYA7 1-469): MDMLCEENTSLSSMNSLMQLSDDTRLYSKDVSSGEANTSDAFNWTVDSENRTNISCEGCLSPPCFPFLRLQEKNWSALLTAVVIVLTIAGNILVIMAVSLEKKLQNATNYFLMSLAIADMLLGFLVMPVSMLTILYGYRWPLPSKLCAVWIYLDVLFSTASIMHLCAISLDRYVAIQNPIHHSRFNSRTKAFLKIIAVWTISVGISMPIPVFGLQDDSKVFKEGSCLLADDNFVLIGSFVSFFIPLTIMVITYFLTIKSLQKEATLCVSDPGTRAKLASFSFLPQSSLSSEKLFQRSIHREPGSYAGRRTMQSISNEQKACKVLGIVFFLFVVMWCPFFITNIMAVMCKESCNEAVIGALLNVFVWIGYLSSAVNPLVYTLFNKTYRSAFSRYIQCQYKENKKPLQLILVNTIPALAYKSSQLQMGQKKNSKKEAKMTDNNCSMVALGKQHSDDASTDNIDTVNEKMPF

- IC50 [1]: 5 nM
- IC50 [2]: 54700 nM
- Cardiac frequency, max effect at 3 mg/kg [3]: +0.9 % vs basal
- IC50 [5]: 3.1 nM
- IC50 [6]: 8.2 nM
- bioavailability ([7]; plasma, po, 15 mg/kg OS vs 1 mg/kg IV, read-out: relative bioavailability (AUC OS/AUC IV, dose corrected)): ~80%
- AUC ([7]; plasma, po, OS 15 mg/kg): 3620 ng·h/mL
- concentration at 0.25 h ([7]; plasma, po, OS 15 mg/kg): 230 ng/mL
- concentration at 0.5 h ([7]; plasma, po, OS 15 mg/kg): 360 ng/mL
- concentration at 1 h ([7]; plasma, po, OS 15 mg/kg): 480 ng/mL
- concentration at 2 h ([7]; plasma, po, OS 15 mg/kg): 390 ng/mL
- concentration at 3 h ([7]; plasma, po, OS 15 mg/kg, 3 h): 340 ng/mL
- concentration at 4 h ([7]; plasma, po, OS 15 mg/kg, 4 h): 320 ng/mL
- concentration at 6 h ([7]; plasma, po, OS 15 mg/kg, 6 h): 280 ng/mL
- concentration at 8 h ([7]; plasma, po, OS 15 mg/kg, 8 h): 180 ng/mL
- concentration at 12 h ([7]; plasma, po, OS 15 mg/kg, 12 h): 80 ng/mL
- AUC ([7]; plasma, IV 1 mg/kg): 300 ng·h/mL
- concentration at 0.083 h ([7]; plasma, IV 1 mg/kg, 0.083 h): 420 ng/mL
- concentration at 0.25 h ([7]; plasma, IV 1 mg/kg): 300 ng/mL
- concentration at 0.5 h ([7]; plasma, IV 1 mg/kg): 180 ng/mL
- concentration at 1 h ([7]; plasma, IV 1 mg/kg): 100 ng/mL
- concentration at 2 h ([7]; plasma, IV 1 mg/kg): 40 ng/mL
- Plasma concentration ([7]; IV 1 mg/kg, 6 h): 0 ng/mL
- concentration at 3 h ([7]; plasma, iv, 1 mg/kg): 20 ng/mL
- concentration at 4 h ([7]; plasma, iv, 1 mg/kg): 10 ng/mL
- concentration at 24 h ([7]; plasma, po, 15 mg/kg): 20 ng/mL
- half-life ([7]; plasma, read-out: half-life, terminal elimination phase (converted)): ~6 h
Compound: COc1cc2nc(N3CCC(c4ccccn4)CC3)nc(N)c2cc1OC [Compound 7, 1-(4-amino-6,7-dimethoxy-2-quinazolinyl)-4-(2-pyridyl)piperidine(hydrochloride)]
- anti-hypertensive action (in words) [3]: about as powerful as prazosin
- Systolic pressure, max effect at 3 mg/kg [3]: -22.7 % vs basal
- ED20 ([3]; Rattus norvegicus, 2 h, 0-120 min, NC: not calculable, read-out: Systolic pressure ED20 (0-120 min)): 2.2 mg/kg
- ED30 ([4]; 0.5 h, IV bolus, interval 0-30 min): 0.08 mg/kg
- ED30 ([4]; 1 h, IV bolus, interval 30-60 min): 0.09 mg/kg

Compound: O=C(c1ccc(F)cc1)C1CCN(CCn2c(=O)[nH]c3ccccc3c2=O)CC1 [Ketanserine, reference compound]
- IC50 [1]: 270 nM
- IC50 [2]: 228 nM
- IC50 [5]: 48.2 nM
- IC50 [6]: 29.9 nM
- times less powerful (on average) [8]: 10 to 30 times

Compound: COc1cccc(OC)c1OCCNCC1COc2ccccc2O1 (stereo not drawn) [WB-4101, reference compound]
- IC50 [2]: > 145000 nM
- 5-HT2-antagonist activity (in words) ([2]; rabbit aorta): inactive until higher doses (50 μg/ml)
- anti-hypertensive action (in words) [3]: inactive
- Systolic pressure ED20 (0-120 min) ([3]; 0-120 min, NC: not calculable): INACTIVE
- Cardiac frequency, max effect at 3 mg/kg [3]: -5.7 % vs basal
- Systolic pressure, max effect at 3 mg/kg [3]: -2.6 % vs basal
- hypotensive activity compared with prazosin/compounds (in words) ([4]; IV bolus): less active
- ED30 ([4]; iv, 0.5 h): 0.13 mg/kg
- ED30 ([4]; iv, 1 h): 0.29 mg/kg
- IC50 [5]: 16.5 nM
- times less powerful (on average) [8]: 10 to 30 times
